Experimental data taken from article PMC7794376 (Nature Communications, 2021).
Where “and” joins values, the source holds several entries; their conditions need not be identical. Identical values can stand only once. Like-named read-outs stand apart in the source and are kept apart here.

Tests used:
[1] = molecular target: T1, MtbCoaBC (Mycobacterium tuberculosis, UniProt P9WNZ1); assay: High-throughput end-point pyrophosphate quantification assay (Biomol Green); assay type: biochemical; conditions: MtbCoaB activity; end-point, 2 µM CTP, 40 µM L-cysteine, 30 µM PPA; read-out: IC50 biomol green assay
T1 sequence (P9WNZ1 whole entry): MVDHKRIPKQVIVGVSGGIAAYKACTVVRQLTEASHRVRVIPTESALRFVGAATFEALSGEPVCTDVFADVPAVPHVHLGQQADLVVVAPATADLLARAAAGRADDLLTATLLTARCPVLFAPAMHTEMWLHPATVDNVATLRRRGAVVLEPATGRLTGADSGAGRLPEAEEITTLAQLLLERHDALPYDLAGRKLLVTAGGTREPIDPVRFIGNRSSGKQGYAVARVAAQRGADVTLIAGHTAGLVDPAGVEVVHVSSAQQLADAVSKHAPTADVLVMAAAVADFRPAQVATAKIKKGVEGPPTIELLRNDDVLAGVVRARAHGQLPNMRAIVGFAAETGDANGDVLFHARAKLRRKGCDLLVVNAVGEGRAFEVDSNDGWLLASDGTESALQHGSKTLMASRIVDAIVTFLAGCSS

[2] = molecular target: MsmCoaBC (Mycolicibacterium smegmatis, UniProt A0QWT2); assay: EnzChek pyrophosphate assay, CoaB activity of MsmCoaBC; assay type: biochemical, Mycobacterium smegmatis
MsmCoaBC, sequence (A0QWT2 whole entry): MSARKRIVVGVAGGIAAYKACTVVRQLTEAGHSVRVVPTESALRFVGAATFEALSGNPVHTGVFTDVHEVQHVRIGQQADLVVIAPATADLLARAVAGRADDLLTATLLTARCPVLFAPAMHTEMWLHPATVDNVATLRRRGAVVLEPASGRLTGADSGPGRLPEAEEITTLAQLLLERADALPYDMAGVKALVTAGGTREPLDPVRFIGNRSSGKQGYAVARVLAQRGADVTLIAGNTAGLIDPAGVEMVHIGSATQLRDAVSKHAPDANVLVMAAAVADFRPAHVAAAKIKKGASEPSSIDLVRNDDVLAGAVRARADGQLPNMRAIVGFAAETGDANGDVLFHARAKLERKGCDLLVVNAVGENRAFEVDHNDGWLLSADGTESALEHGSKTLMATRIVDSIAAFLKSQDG
Procedure: The commercially available EnzChek pyrophosphate assay kit (E-6645) (Life Technologies) was used for this assay. […] In the assays with HCoaB an enzyme concentration of 1 µM was used instead. […] Assays were performed on either a CLARIOstar or PHERAstar microplate reader (BMG Labtech) in 96-well plates (Greiner). A substrate mixture containing the substrates and the inhibitor was pre-incubated at 25 °C for 10 min. An enzyme solution was prepared and separately pre-incubated at 25 °C for 10 min. The reaction was initiated by the addition of the substrates to the solution containing the enzyme to a final volume of 75 µL. Enzymatic activity was monitored by following the absorbance at 360 nm for 30 min (100 cycles/20 s each cycle) and only the steady-state region of the assay was used for data analysis. Assays were performed in triplicates, including a negative control (lacking PPA) and a positive control (lacking inhibitor).

[3] = system: M. tuberculosis coaBC Tet-OFF conditional knockdown; assay type: cell-based, Mycobacterium tuberculosis; conditions: GAST/Fe minimal media
[4] = molecular target: T1, MtbCoaBC; assay: biochemical; assay type: biochemical; conditions: for Activity R1 / Activity R3: slope of absorbance at 360 vs time (s)
[5] = MsmCoaBC, 1b at concentration 1 (log 0; unit not given)
[6] = MsmCoaBC, 1b at concentration 2 (log 0.30103; unit not given)
[7] = MsmCoaBC, 0.015625 uM 1b, relative to average DMSO CT, replicates R1-R3
[8] = MsmCoaBC, 0.015625 uM 1b, replicates R1-R3
[9] = MsmCoaBC, 0.03125 uM 1b, relative to average DMSO CT, replicates R1-R3
[10] = MsmCoaBC, 0.03125 uM 1b, replicates R1-R3
[11] = MsmCoaBC, 0.0625 uM 1b, relative to average DMSO CT, replicates R1-R3
[12] = MsmCoaBC, 0.0625 uM 1b, replicates R1-R3
[13] = MsmCoaBC, 0.25 uM 1b, relative to average DMSO CT, replicates R1-R3
[14] = MsmCoaBC, 0.25 uM 1b, replicates R1-R3
[15] = MsmCoaBC, 0.5 uM 1b, replicates R1-R3

O=C(c1ccc(O)cc1)c1ccc(O)c(O)c1O [compound 1b]
IC50 [1]: 300 nM | IC50 [2]: 260 ± 20 nM | inhibition, replicates 1-3 [2, 5]: 86.05 and 84.82 and 84.29 | reaction rate (slope of absorbance at 360 nm versus time), replicates 1-3 [2, 5]: 0.000051231 and 0.000045511 and 0.000049507 | remaining activity relative to control, replicates 1-3 [2, 5]: 15.71 and 13.95 and 15.18 | inhibition, replicates 1-3 [2, 6]: 94.07 | reaction rate (slope of absorbance at 360 nm versus time), replicates 1-3 [2, 6]: -0.000000851 and -0.000003095 and 0.000019348 | remaining activity relative to control, replicates 1-3 [2, 6]: -0.2608 and -0.9489 and 5.932 | Activity % [2, 7]: 96.69% and 95.33% | activity at 0.015625 µM [2, 7]: 98.6% | Activity (slope of absorbance at 360 nm vs time) [2, 8]: 0.0003217 and 0.0003154 and 0.0003109 | Inhibition % [2, 8]: 3.31% and 4.67% and 1.38% | Activity % [2, 9]: 95.46% and 96.92% | activity at 0.03125 µM [2, 9]: 93.2% | Activity (slope of absorbance at 360 nm vs time) [2, 10]: 0.0003041 and 0.0003114 and 0.0003161 | Inhibition % [2, 10]: 4.54% and 3.08% and 6.75% | Activity % [2, 11]: 92.06% and 92.26% | activity at 0.0625 µM [2, 11]: 85.7% | Activity (slope of absorbance at 360 nm vs time) [2, 12]: 0.0002796 and 0.0003003 and 0.0003009 | Inhibition % [2, 12]: 7.74% and 14.27% | inhibition at 0.0625 µM [2, 12]: 7.94% | Activity % [2, 13]: 48.31% and 55.06% | activity at 0.25 µM [2, 13]: 46% | Activity (slope of absorbance at 360 nm vs time) [2, 14]: 0.0001501 and 0.0001576 and 0.0001796 | Inhibition % [2, 14]: 44.94% and 53.97% | inhibition at 0.25 µM [2, 14]: 51.7% | Activity % ([2]; MsmCoaBC, 0.5 uM 1b, relative to average DMSO CT, replicates R1-R3): 12.28% and 18.89% and 25.96% | Activity (slope of absorbance at 360 nm vs time) [2, 15]: 0.000040045 and 0.000061602 and 0.000084683 | Inhibition % [2, 15]: 74.04% and 87.72% | inhibition at 0.5 µM [2, 15]: 81.1% | sensitisation on incremental silencing of CoaBC [3]: did not sensitise M. tuberculosis further | inhibition at 0.015625 µM ([4]; 0.015625 uM 1b, replicate R1, read-out: Inhibition % R1): 2.55% | activity at 0.015625 µM ([4]; 0.015625 uM 1b, replicate R1, relative to average DMSO CT, read-out: Activity % R1): 97.4% | Activity R1 ([4]; 0.015625 uM 1b, replicate R1): 0.0001869 | inhibition at 0.015625 µM ([4]; 0.015625 uM 1b, replicate R2, read-out: Inhibition % R2): 2.2% | activity at 0.015625 µM ([4]; 0.015625 uM 1b, replicate R2, relative to average DMSO CT, read-out: Activity % R2): 97.8% | inhibition at 0.015625 µM ([4]; 0.015625 uM 1b, replicate R3, read-out: Inhibition % R3): 1.31% | activity at 0.015625 µM ([4]; 0.015625 uM 1b, replicate R3, relative to average DMSO CT, read-out: Activity % R3): 98.7% | Activity R3 ([4]; 0.015625 uM 1b, replicate R3): 0.0001893 | inhibition at 0.03125 µM ([4]; 0.03125 uM 1b, replicate R1, read-out: Inhibition % R1): 6.71% | activity at 0.03125 µM ([4]; 0.03125 uM 1b, replicate R1, relative to average DMSO CT, read-out: Activity % R1): 93.3% | Activity R1 ([4]; 0.03125 uM 1b, replicate R1): 0.0001789 | inhibition at 0.03125 µM ([4]; 0.03125 uM 1b, replicate R2, read-out: Inhibition % R2): 2.99% | activity at 0.03125 µM ([4]; 0.03125 uM 1b, replicate R2, relative to average DMSO CT, read-out: Activity % R2): 97% | inhibition at 0.03125 µM ([4]; 0.03125 uM 1b, replicate R3, read-out: Inhibition % R3): 1.51% | activity at 0.03125 µM ([4]; 0.03125 uM 1b, replicate R3, relative to average DMSO CT, read-out: Activity % R3): 98.5% | Activity R3 ([4]; 0.03125 uM 1b, replicate R3): 0.0001889 | inhibition at 0.0625 µM ([4]; 0.0625 uM 1b, replicate R1, read-out: Inhibition % R1): 9.45% | activity at 0.0625 µM ([4]; 0.0625 uM 1b, replicate R1, relative to average DMSO CT, read-out: Activity % R1): 90.5% | Activity R1 ([4]; 0.0625 uM 1b, replicate R1): 0.0001736 | inhibition at 0.0625 µM ([4]; 0.0625 uM 1b, replicate R2, read-out: Inhibition % R2): 5.43% | activity at 0.0625 µM ([4]; 0.0625 uM 1b, replicate R2, relative to average DMSO CT, read-out: Activity % R2): 94.6% | inhibition at 0.0625 µM ([4]; 0.0625 uM 1b, replicate R3, read-out: Inhibition % R3): 12.9% | activity at 0.0625 µM ([4]; 0.0625 uM 1b, replicate R3, relative to average DMSO CT, read-out: Activity % R3): 87.1% | Activity R3 ([4]; 0.0625 uM 1b, replicate R3): 0.0001671 | inhibition at 0.25 µM ([4]; 0.25 uM 1b, replicate R1, read-out: Inhibition % R1): 34.5% | activity at 0.25 µM ([4]; 0.25 uM 1b, replicate R1, relative to average DMSO CT, read-out: Activity % R1): 65.5% | Activity R1 ([4]; 0.25 uM 1b, replicate R1): 0.0001256
